# Test system: acetylation level of H3K23 in ZR-75-1 cells
# Assay: Effect on histone acetilation in ER-positive breast cancer cells (Western blotting)
# Type: cell-based, human
# Settings: 5 days of incubation, from 5 μM, Western blot (FIG. 1)
# Method: Test Example 4: Assay for Effects of Compounds on Histone Acetylation in Estrogen Receptor-Positive Breast Cancer Cells
# Assay Method: Western Blotting Method (Immunoblotting Assay)
# The effects of the test compounds on the acetylation level of H3K23 in ZR-75-1 cells (Nanjing Cobioer, CBP60402) were assayed. • 1. On day 1, the cells were plated at 400,000 cells/well (2 mL/well) and cultured overnight in an incubator at 37° C. with 5% CO2. • 2. On day 2, compounds were added starting at 5 μM, with a 10-fold serial dilution across a total of 3 concentration gradients, and DMSO was added to the negative control wells. • 3. On day 6, after 5 days of incubation with compounds, protein samples were collected: An ice box, pre-cooled PBS (4° C.), a cell lysis buffer RIPA (Beyotime, P0013B), and a protease inhibitor (100x) (Thermo Scientific™, 87786) were prepared. Then, 120 μL of the cell lysis buffer was added to each well. The mixture was placed on ice for about 15 min. […] Protein quantification by BCA method (Beyotime, P0009) • Standards (8 concentrations) were prepared, and the samples and the standards were added to a 96-well plate. […] The absorbance was then measured using a microplate reader. […]
# The next day, the PVDF membrane was taken out and washed (8 min×3) with TBST (with 0.5% Tween 20). […] After the washing, a luminescence solution (Tanon, 180-506) was added for exposure. […]
row,Structure (SMILES),acetylation level of H3K23
1,"COc1ccccc1S(=O)(=O)Nc1noc2cc(Cn3cccn3)cc(OC)c12 [PF-8144, reference compound]",significantly reduce the acetylation level of H3K23
2,"COc1ccc2c(c1S(=O)(=O)Nc1noc3cc(Cn4cccn4)c(F)c(OC)c13)OCCO2 [Compound 28, N-(6-((1H-Pyrazol-1-yl)methyl)-5-fluoro-4-methoxybenzo[d]isoxazol-3-yl)-6-methoxy-2,3-dihydrobenzo[b][1,4]dioxine-5-sulfonamide]",significantly reduce the acetylation level of H3K23

# From patent publication US20260174778A1, “SULFONAMIDE COMPOUND, AND PREPARATION METHOD THEREFOR AND USE THEREOF” (SHANGHAI HENLIUS BIOTECH, INC., priority 2023, published 2026)
